One molecule from patent US8653264B2, “Crystal of erlotinib base and the preparation method thereof” (Zhejiang Huahai Pharmaceutical Co., Ltd., priority 2010, dated 2014) can be followed below.

Data set [1] can be described thus: hygroscopicity experiment. It is filed as physicochemical. Conditions: crystal form IV of erlotinib base; conditions not given.
Another data set in a line: stability experiment. Conditions: crystal form IV of erlotinib base; conditions not given. It is filed as physicochemical.

For the molecule `C#Cc1cccc(Nc2ncnc3cc(OCCOC)c(OCCOC)cc23)c1` [Form IV, N-(3-ethynylphenyl)-6,7-bis(2-methoxyethoxy)quinazolin-4-amine], the “change in the hygroscopicity experiment” value in data set [1] is recorded as “did not significantly change”. Moreover, the “change in the stability experiment” value in “stability experiment” is on record as “did not significantly change”.
